Among the test systems are CAKI-1; DMS-273; HCT-116; HCT-15; HL-60; KM-20L2; LOX IMVI; Malme-3M; NCI-H522; SF-295; SF-539; SK-MEL-2; SK-MEL-5; SNB-19; SR; U-251; UO-31.
Assay in all cases: NCI-60 cell line screen, 48 h

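Where inhibition never reached the appropriate level, the endpoint shown equals the highest concentration tested. Otherwise, values were interpolated linearly from a five-concentration, 48-hour dose response in 96-well plates. The concentration for 50% growth inhibition is given as GI50.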 Active and inactive are the calls of the source. Cut-off read from the data, not from the text of the source: active = GI50 up to about 1.1 µM and inactive = higher. Some results are limits rather than exact numbers.

In the case of `O=C1OC(=O)c2c1nc1ccccc1c2-c1ccccc1`, the GI50 in the experiment with CAKI-1 is > 100 µM (inactive); with DMS-273, > 100 µM (inactive); in the experiment with HCT-116 it was > 100 µM (inactive); in the experiment with HCT-15 it was > 100 µM; in the experiment on HL-60 it was > 100 µM (inactive); in the experiment on KM-20L2, > 100 µM (inactive). Also, the GI50 with LOX IMVI, with Malme-3M, in the experiment with NCI-H522, with SF-295, with SF-539 and with SK-MEL-2 was > 100 µM (inactive) each time. Moreover, the GI50 in the experiment with SK-MEL-5, in the experiment with SNB-19, in the experiment on SR, in the experiment on U-251 and with UO-31 was > 100 µM (inactive) throughout.
Turning to `CS(=O)(=O)OC1CCC2(C#N)CCC1C2=O` (stereo unspecified), the GI50 in the experiment on CAKI-1 is > 100 µM (inactive); with DMS-273, 22.5 µM (inactive); with HCT-116, > 100 µM (inactive); in the experiment with HCT-15, 12.1 µM; with HL-60, > 100 µM (inactive); in the experiment on KM-20L2, 54.5 µM (inactive). Also, the GI50 is > 100 µM (inactive) in the experiment on LOX IMVI; > 100 µM (inactive) with Malme-3M; 86.5 µM (inactive) in the experiment with NCI-H522; > 100 µM (inactive) with SF-295; > 100 µM (inactive) with SF-539; > 100 µM (inactive) with SK-MEL-2. Further, the GI50 was > 100 µM (inactive) in the experiment with SK-MEL-5; > 100 µM (inactive) in the experiment on SNB-19; 19.8 µM (inactive) in the experiment on SR; > 100 µM (inactive) in the experiment on U-251; > 100 µM (inactive) in the experiment on UO-31.
`CCc1cccc(C)c1NC(=S)NC(=O)c1ccccc1C(=O)NC(=S)Nc1c(C)cccc1CC`: the GI50 was 56.2 µM (inactive) in the experiment with CAKI-1; 95.3 µM (inactive) in the experiment with DMS-273; 71.4 µM (inactive) in the experiment on HCT-116; > 100 µM with HCT-15; 40.6 µM (inactive) in the experiment with HL-60; 91.8 µM (inactive) in the experiment on KM-20L2. Further, the GI50 was > 100 µM (inactive) with LOX IMVI; > 100 µM (inactive) in the experiment on Malme-3M; 18.2 µM (inactive) in the experiment on NCI-H522; 57.7 µM (inactive) in the experiment on SF-295; > 100 µM (inactive) in the experiment on SF-539; > 100 µM (inactive) in the experiment on SK-MEL-2. For the same molecule, the GI50 was > 100 µM (inactive) in the experiment on SK-MEL-5; > 100 µM (inactive) in the experiment with SNB-19; 38.4 µM (inactive) with SR; 67.6 µM (inactive) with U-251; > 100 µM (inactive) in the experiment on UO-31.
As to `COC(=O)c1cccc2c3ccccc3c3ccccc3c12`, the GI50 is 40.4 µM (inactive) in the experiment with CAKI-1; 33.3 µM (inactive) in the experiment with DMS-273; 37.8 µM (inactive) in the experiment on HCT-116; 35.2 µM in the experiment on HCT-15; 23.3 µM (inactive) with HL-60; 41.8 µM (inactive) in the experiment on KM-20L2. Moreover, the GI50 in the experiment with LOX IMVI is 29.4 µM (inactive); in the experiment with Malme-3M, 73.5 µM (inactive); with NCI-H522, 36.4 µM (inactive); in the experiment with SF-295, 26.6 µM (inactive); in the experiment with SK-MEL-2 it was 24.8 µM (inactive); in the experiment on SK-MEL-5, 30.1 µM (inactive). The GI50 with SNB-19 is 30.4 µM (inactive); in the experiment with SR, 36.8 µM (inactive); with U-251, 26.1 µM (inactive); with UO-31 it was 39.9 µM (inactive).
As to `CN(C)c1ncnc2c1Cc1ccccc1C(=O)N2C`, the GI50 in the experiment with CAKI-1, in the experiment with DMS-273, in the experiment on HCT-116, in the experiment with HL-60, in the experiment with KM-20L2 and in the experiment on LOX IMVI was > 100 µM (inactive) in each case. Also, the GI50 with Malme-3M, in the experiment with NCI-H522, in the experiment with SF-295, in the experiment on SF-539, with SK-MEL-2 and with SK-MEL-5 was > 100 µM (inactive) each time. For the same molecule, the GI50 in the experiment on SNB-19, with SR, in the experiment on U-251 and with UO-31 was > 100 µM (inactive) in each case.
Regarding `S=C1NCCN1`, the GI50 with CAKI-1 is > 100 µM (inactive); in the experiment on DMS-273 it was > 100 µM (inactive); in the experiment on HCT-116, > 100 µM (inactive); in the experiment on HCT-15, > 100 µM; with HL-60, > 100 µM (inactive); in the experiment with KM-20L2, > 100 µM (inactive). Also, the GI50 in the experiment with LOX IMVI, with Malme-3M, with NCI-H522, in the experiment on SF-295, in the experiment with SF-539 and in the experiment with SK-MEL-2 was > 100 µM (inactive) each time. In addition, the GI50 with SK-MEL-5, in the experiment on SNB-19, in the experiment on SR, with U-251 and in the experiment with UO-31 was > 100 µM (inactive) throughout.
As for `CSc1cc(C(C)(C)C)ccc1C(O)c1ccc(C(C)(C)C)cc1SC`, the GI50 with CAKI-1 was 11.3 µM (inactive); with DMS-273, 10.9 µM (inactive); in the experiment with HCT-116, 5.56 µM (inactive); in the experiment with HCT-15, 7.83 µM; with HL-60, 4.91 µM (inactive); with KM-20L2 it was 11 µM (inactive). The GI50 in the experiment on LOX IMVI was 12 µM (inactive); with Malme-3M, 14 µM (inactive); with NCI-H522, 10.2 µM (inactive); in the experiment with SF-295 it was 10.5 µM (inactive); in the experiment on SF-539, 16 µM (inactive); in the experiment on SK-MEL-2 it was 15.1 µM (inactive). Also, the GI50 with SK-MEL-5 is 14.4 µM (inactive); in the experiment with SNB-19, 16 µM (inactive); in the experiment on SR, 10.2 µM (inactive); in the experiment on U-251, 14.1 µM (inactive); in the experiment on UO-31, 6.37 µM (inactive).
As for `COc1ccc(C(=O)C(c2ccc(OC)cc2)C2(O)C(=O)Nc3ccccc32)cc1` (stereo unspecified), the GI50 in the experiment with CAKI-1 was > 100 µM (inactive); with DMS-273 it was > 100 µM (inactive); with HCT-116, > 100 µM (inactive); with HCT-15 it was > 100 µM; in the experiment with HL-60, 98.6 µM (inactive); in the experiment on KM-20L2 it was > 100 µM (inactive). In addition, the GI50 in the experiment with LOX IMVI is 72.9 µM (inactive); in the experiment on Malme-3M it was > 100 µM (inactive); with NCI-H522, > 100 µM (inactive); in the experiment on SF-295, > 100 µM (inactive); with SF-539, > 100 µM (inactive); in the experiment with SK-MEL-2, > 100 µM (inactive). The GI50 in the experiment with SNB-19, in the experiment on SR, with U-251 and in the experiment with UO-31 was > 100 µM (inactive) each time.
`Cn1c(=O)c(C(c2ccccc2)c2c(O)c3ccccc3n(C)c2=O)c(O)c2ccccc21`: the GI50 in the experiment with CAKI-1 was > 100 µM (inactive); in the experiment with DMS-273, > 100 µM (inactive); in the experiment with HCT-116, > 100 µM (inactive); with HCT-15 it was > 10 µM; in the experiment on HL-60, 32.4 µM (inactive); in the experiment on KM-20L2, > 100 µM (inactive). Further, the GI50 in the experiment with LOX IMVI, in the experiment on Malme-3M, with NCI-H522, in the experiment on SF-295, in the experiment on SF-539 and with SK-MEL-2 was > 100 µM (inactive) each time. Also, the GI50 is > 100 µM (inactive) in the experiment on SK-MEL-5; > 100 µM (inactive) with SNB-19; 45.5 µM (inactive) in the experiment on SR; > 100 µM (inactive) in the experiment on U-251; > 100 µM (inactive) in the experiment with UO-31.
With `CC(C)[Si](OCC1CC(C#N)OC(C)(C)O1)(C(C)C)C(C)C` (stereo unspecified), the GI50 in the experiment with CAKI-1 is 27.6 µM (inactive); with DMS-273, 19.2 µM (inactive); with HCT-116, 16.5 µM (inactive); in the experiment on HCT-15 it was 27.8 µM; in the experiment on HL-60 it was 13 µM (inactive); in the experiment with KM-20L2, 21.9 µM (inactive). Moreover, the GI50 is 19.3 µM (inactive) in the experiment on LOX IMVI; 22.9 µM (inactive) with Malme-3M; 18.2 µM (inactive) in the experiment on NCI-H522; 14.9 µM (inactive) in the experiment with SF-295; 27.1 µM (inactive) with SF-539; 16.2 µM (inactive) with SK-MEL-2. Further, the GI50 in the experiment on SK-MEL-5 is 15.5 µM (inactive); in the experiment with SNB-19, 22 µM (inactive); in the experiment on SR, 18.1 µM (inactive); in the experiment with U-251 it was 15.8 µM (inactive); with UO-31, 20.7 µM (inactive).
`Cc1cccc2cc3cccc(C(=O)NCCN(C)C)c3nc12`: the GI50 was 0.027 µM (active) in the experiment with CAKI-1; 0.0374 µM (active) with DMS-273; 0.0354 µM (active) with HCT-116; 0.0993 µM in the experiment on HCT-15; 0.028 µM (active) in the experiment with HL-60; 0.242 µM (active) in the experiment with KM-20L2. Moreover, the GI50 in the experiment on LOX IMVI was 0.083 µM (active); in the experiment with Malme-3M, 0.139 µM (active); in the experiment with NCI-H522, 0.151 µM (active); in the experiment with SF-295, 0.131 µM (active); in the experiment with SF-539, 0.129 µM (active); with SK-MEL-2, 0.579 µM (active). Moreover, the GI50 in the experiment with SK-MEL-5 was 0.173 µM (active); with SNB-19, 0.191 µM (active); in the experiment with SR, 0.0224 µM (active); in the experiment with U-251, 0.0689 µM (active); with UO-31, 0.083 µM (active).
Turning to `COc1ccc(NCc2cc(OC)cc(OC)c2)cc1`, the GI50 in the experiment on CAKI-1 is 9.75 µM (inactive); in the experiment on DMS-273, 6.15 µM (inactive); with HCT-116 it was 15.6 µM (inactive); with HCT-15 it was 10.3 µM; in the experiment with HL-60, 7.6 µM (inactive); in the experiment with KM-20L2, 10.7 µM (inactive). Further, the GI50 with LOX IMVI was 25.2 µM (inactive); with Malme-3M it was 40.4 µM (inactive); with NCI-H522, 7.62 µM (inactive); in the experiment on SF-295, 20.8 µM (inactive); in the experiment with SF-539 it was 16.3 µM (inactive); in the experiment on SK-MEL-2, 7 µM (inactive). Besides, the GI50 in the experiment on SK-MEL-5 is 9.91 µM (inactive); with SNB-19, > 68.4 µM (inactive); in the experiment on SR, 13.1 µM (inactive); with U-251, 24.4 µM (inactive); in the experiment with UO-31 it was 35.9 µM (inactive).
